pKi: −log10 of the molar value. “And” between values parts separate entries of the source, which are not always exact repeats. Identical values can stand only once. Counter-ions that a name gives are not always drawn.
Biological target: α7 nAChR (Rattus norvegicus, UniProt Q05941)
Assay: [3H]-MLA competition binding assay, rat brain membranes
Details: Ki, inhibition of [3H]-MLA binding (3.0 to 4.0 nM), Sprague-Dawley rat whole brain minus cerebellum homogenate, 1 hour at 25° C
Protocol: Membrane Preparation. Male Sprague-Dawley rats (300-350 g) are sacrificed by decapitation and the brains (whole brain minus cerebellum) are dissected quickly, weighed and homogenized in 9 volumes/g wet weight of ice-cold 0.32 M sucrose using a rotating pestle on setting 50 (10 up and down strokes). The homogenate is centrifuged at 1,000×g for 10 minutes at 4° C. The supernatant is collected and centrifuged at 20,000×g for 20 minutes at 4° C. The resulting pellet is resuspended to a protein concentration of 1-8 mg/mL. Aliquots of 5 mL homogenate are frozen at −80° C. until needed for the assay.
Binding Assay. […] Filters are pre-soaked in 50 mm Tris HCl pH 7.0-0.05% polyethylenimine. The filters are rapidly washed two times with 5 mL aliquots of cold 0.9% saline and then counted for radioactivity by liquid
Data Analysis. […] Hill coefficients were obtained using non-linear regression (GraphPad Prism sigmoidal dose-response with variable slope).

Chain of α7 nAChR (Q05941 23-502): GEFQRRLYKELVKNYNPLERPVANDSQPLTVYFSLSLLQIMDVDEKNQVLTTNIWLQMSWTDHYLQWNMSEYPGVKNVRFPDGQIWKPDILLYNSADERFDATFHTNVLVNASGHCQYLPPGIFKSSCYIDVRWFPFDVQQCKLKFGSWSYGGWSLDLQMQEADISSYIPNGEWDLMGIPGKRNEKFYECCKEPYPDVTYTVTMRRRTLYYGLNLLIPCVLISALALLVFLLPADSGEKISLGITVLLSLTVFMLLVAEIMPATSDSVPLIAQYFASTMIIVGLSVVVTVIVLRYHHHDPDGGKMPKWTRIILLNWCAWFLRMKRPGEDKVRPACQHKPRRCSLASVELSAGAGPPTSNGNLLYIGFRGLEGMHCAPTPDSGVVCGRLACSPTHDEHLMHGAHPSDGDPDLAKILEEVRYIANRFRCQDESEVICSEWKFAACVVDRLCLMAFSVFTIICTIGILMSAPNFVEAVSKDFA

SMILES | pKi
O=C(N[C@H]1CN2CCC1CC2)c1ncc(-c2ccccc2Cl)o1 [Example 86, N-[(3R)-1-azabicyclo[2.2.2]oct-3-yl]-5-(2-chlorophenyl)-1,3-oxazole-2-carboxamide 4-methylbenzenesulfonate] | 7.40 to 7.52
N#Cc1cccc(-c2cnc(C(=O)N[C@H]3CN4CCC3CC4)o2)c1 [Example 87, N-[(3R)-1-azabicyclo[2.2.2]oct-3-yl]-5-(3-cyanophenyl)-1,3-oxazole-2-carboxamide 4-methylbenzenesulfonate] | 6.82 to 6.89
O=C(N[C@H]1CN2CCC1CC2)c1ncc(-c2ccc(Br)cc2)o1 [Example 88, N-[(3R)-1-azabicyclo[2.2.2]oct-3-yl]-5-(4-bromophenyl)-1,3-oxazole-2-carboxamide 4-methylbenzenesulfonate] | 7.10 to 7.19
Cc1nc(C(=O)N[C@H]2CN3CCC2CC3)sc1-c1ccccc1 [Example 89, N-[(3R)-1-Azabicyclo[2.2.2]oct-3-yl]-4-methyl-5-phenyl-1,3-thiazole-2-carboxamide 4-Methylbenzenesulfonate] | 6.40 to 6.51
O=C(N[C@H]1CN2CCC1CC2)c1ncc(-c2ccccc2)s1 [Example 90, N-[(3R)-1-azabicyclo[2.2.2]oct-3-yl]-5-phenyl-1,3-thiazole-2-carboxamide] | 6.82 to 7.10
O=C(N[C@H]1CN2CCC1CC2)c1ncc(-c2cccc([N+](=O)[O-])c2)s1 [Example 92, N-[(3R)-1-azabicyclo[2.2.2]oct-3-yl]-5-(3-nitrophenyl)-1,3-thiazole-2-carboxamide 4-medhylbenzenesulfonate] | 6.43 to 6.72
COc1cccc(-c2cnc(C(=O)N[C@H]3CN4CCC3CC4)s2)c1 [Example 93, N-[(3R)-1-azabicyclo[2.2.2]oct-3-yl]-5-(3-methoxyphenyl)-1,3-thiazole-2-carboxamide 4-methylbenzenesulfonate] | 7.35 to 7.40
O=C(N[C@H]1CN2CCC1CC2)c1ncc(-c2ccccc2Cl)s1 [Example 94, N-[(3R)-1-azabicyclo[2.2.2]oct-3-yl]-5-(2-chlorophenyl)-1,3-thiazole-2-carboxamide 4-methylbenzenesulfonate] | 6.90
O=C(N[C@H]1CN2CCC1CC2)c1ncc(-c2ccc(F)cc2)s1 [Example 95, N-[(3R)-1-azabicyclo[2.2.2]oct-3-yl]-5-(4-fluorophenyl)-1,3-thiazole-2-carboxamide 4-methylbenzenesulfonate] | 5.96
COc1ccccc1-c1cnc(C(=O)N[C@H]2CN3CCC2CC3)s1 [Example 96, N-[(3R)-1-azabicyclo[2.2.2]oct-3-yl]-5-(2-methoxyphenyl)-1,3-thiazole-2-carboxamide 4-methylbenzenesulfonate] | 6.96 to 7.02
Cc1cnc(C(=O)N[C@H]2CN3CCC2CC3)s1 [Example 98, N-[(3R)-1-azabicyclo[2.2.2]oct-3-yl]-5-methyl-1,3-thiazole-2-carboxamide 4-methylbenzenesulfonate] | 7.10 to 7.30
O=C(N[C@H]1CN2CCC1CC2)c1ncc(-c2cccc(Cl)c2)s1 [Example 99, N-[(3R)-1-azabicyclo[2.2.2]oct-3-yl]-5-(3-chlorophenyl)-1,3-thiazole-2-carboxamide 4-methylbenzenesulfonate] | 6.49 to 6.51
O=C(N[C@H]1CN2CCC1CC2)c1ccc(-c2ccccc2)o1 [Example 103, N-[(3R)-1-Azabicyclo[2.2.2]oct-3-yl]-5-phenyl-furan-2-carboxamide 4-Methylbenzenesulfonate] | 7.30 to 7.77
O=C(N[C@H]1CN2CCC1CC2)c1ccc(-c2ccccc2Cl)o1 [Example 104, N-((3R)-1-azabicyclo[2.2.2]oct-3-yl]-5-(2-chlorophenyl)-furan-2-carboxamide toluene sulfonate] | 6.89 to 7.70 and 7.12
O=C(N[C@H]1CN2CCC1CC2)c1ccc(-c2cccc(Cl)c2)o1 [Example 105, N-[(3R)-1-azabicyclo[2.2.2]oct-3-yl]-5-(3-chlorophenyl)-furan-2-carboxamide toluene sulfonate] | 7.05
O=C(N[C@H]1CN2CCC1CC2)c1ccc(-c2ccc(Cl)cc2)o1 [Example 106, N-[(3R)-1-azabicyclo[2.2.2]oct-3-yl]-5-(4-chlorophenyl)-furan-2-carboxamide fumarate] | 6.72 to 7.82 and 6.96 to 7.66
O=C(N[C@H]1CN2CCC1CC2)c1ccc(-c2ccccc2C(F)(F)F)o1 [Example 108, N-[(3R)-1-azabicyclo[2.2.2]oct-3-yl]-5-[2-(trifluoromethyl)-phenyl]-furan-2-carboxamide fumarate] | 6.25 to 6.38
O=C(N[C@H]1CN2CCC1CC2)c1ccc(-c2cccc(C(F)(F)F)c2)o1 [Example 109, N-[(3R)-1-azabicyclo[2.2.2]oct-3-yl]-5-[3-(trifluoromethyl)-phenyl]-furan-2-carboxamide fumarate] | 8.22 to 8.82
O=C(N[C@H]1CN2CCC1CC2)c1ccc(-c2ccccc2[N+](=O)[O-])o1 [Example 110, N-[(3R)-1-azabicyclo[2.2.2]oct-3-yl]-5-(2-nitrophenyl)-furan-2-carboxamide 4-methylbenzenesulfonate] | 6.72 to 8.40

SMILES | pKi
O=C(N[C@H]1CN2CCC1CC2)c1ccc(-c2ccc([N+](=O)[O-])cc2)o1 [Example 112, N-[(3R)-1-azabicyclo[2.2.2]oct-3-yl]-5-(4-nitrophenyl)-furan-2-carboxamide 4-methylbenzenesulfonate] | 7.62 to 8.30
O=C(N[C@H]1CN2CCC1CC2)c1ccc(-c2ccccc2F)o1 [Example 113, N-[(3R)-1-azabicyclo[2.2.2]oct-3-yl]-5-(2-fluorophenyl)-furan-2-carboxamide 4-methylbenzenesulfonate] | 6.90 to 7.05
O=C(N[C@H]1CN2CCC1CC2)c1ccc(-c2cccc(F)c2)o1 [Example 114, N-[(3R)-1-azabicyclo[2.2.2]oct-3-yl]-5-(3-fluorophenyl)-furan-2-carboxamide 4-methylbenzenesulfonate] | 6.87
O=C(N[C@H]1CN2CCC1CC2)c1ccc(-c2cc(F)ccc2F)o1 [Example 117, N-[(3R)-1-azabicyclo[2.2.2]oct-3-yl]-5-(2,5-difluorophenyl)-furan-2-carboxamide hydrochloride] | 5.73
COc1ccccc1-c1ccc(C(=O)N[C@H]2CN3CCC2CC3)o1 [Example 118, N-[(3R)-1-azabicyclo[2.2.2]oct-3-yl]-5-(2-methoxyphenyl)-furan-2-carboxamide 4-methylbenzenesulfonate] | 7.16 to 7.35
COc1cccc(-c2ccc(C(=O)N[C@H]3CN4CCC3CC4)o2)c1 [Example 119, N-[(3R)-1-azabicyclo[2.2.2]oct-3-yl]-5-(3-methoxyphenyl)-furan-2-carboxamide 4-methylbenzenesulfonate] | 6.25 to 6.38
O=C(N[C@H]1CN2CCC1CC2)c1ccc(-c2cccc(OC(F)(F)F)c2)o1 [Example 120, N-[(3R)-1-azabicyclo[2.2.2]oct-3-yl]-5-[3-(trifluoromethoxy)phenyl]-furan-2-carboxamide 4-methylbenzenesulfonate] | 5.98
Cc1cc(C(=O)N[C@H]2CN3CCC2CC3)oc1C [Example 128, N-[(3R)-1-azabicyclo[2.2.2]oct-3-yl]-4,5-dimethyl-furan-2-carboxamide hydrochloride] | 8.15 to 8.22
Cc1ccc(-c2ccc(C(=O)N[C@H]3CN4CCC3CC4)o2)c([N+](=O)[O-])c1 [Example 130, N-[(3R)-1-azabicyclo[2.2.2]oct-3-yl]-5-(4-methyl-2-nitrophenyl)-furan-2-carboxamide hydrochloride] | 6.25 to 6.38 and 6.39 to 6.48
O=C(N[C@H]1CN2CCC1CC2)c1ccc(-c2ccc(F)c(F)c2)o1 [Example 132, N-[(3R)-1-azabicyclo[2.2.2]oct-3-yl]-5-(3,4-difluorophenyl)-furan-2-carboxamide hydrochloride] | 5.68 to 6.06
O=C(N[C@H]1CN2CCC1CC2)c1ccc(-c2cc(F)cc(F)c2)o1 [Example 133, N-[(3R)-1-azabicyclo[2.2.2]oct-3-yl]-5-(3,5-difluorophenyl)-furan-2-carboxamide hydrochloride] | 7.15 to 7.52
COc1ccc(-c2ccc(C(=O)N[C@H]3CN4CCC3CC4)o2)cc1 [Example 134, N-[(3R)-1-azabicyclo[2.2.2]oct-3-yl]-5-(4-methoxy-phenyl)-furan-2-carboxamide hydrochloride] | 7.00 to 7.22
Cc1ccccc1-c1ccc(C(=O)N[C@H]2CN3CCC2CC3)o1 [Example 135, N-[(3R)-1-azabicyclo[2.2.2]oct-3-yl]-5-(2-methylphenyl)-furan-2-carboxamide 4-methylbenzenesulfonate] | 7.35 to 7.80
Cc1cccc(-c2ccc(C(=O)N[C@H]3CN4CCC3CC4)o2)c1 [Example 136, N-[(3R)-1-azabicyclo[2.2.2]oct-3-yl]-5-(3-methylphenyl)-furan-2-carboxamide 4-methylbenzenesulfonate] | 7.70 to 7.82
O=C(N[C@H]1CN2CCC1CC2)c1ccc(-c2ccccc2OC(F)(F)F)o1 [Example 138, N-[(3R)-1-azabicyclo[2.2.2]oct-3-yl]-5-[2-(trifluoromethoxy)phenyl]-furan-2-carboxamide 4-methylbenzenesulfonate] | 6.23 to 6.28
CC(C)(C)c1ccc(-c2ccc(C(=O)N[C@H]3CN4CCC3CC4)o2)cc1 [Example 140, N-[(3R)-1-azabicyclo[2.2.2]oct-3-yl]-5-(4-tert-butylphenyl)-furan-2-carboxamide 4-methylbenzenesulfonate] | 7.19 to 7.46
O=C(N[C@H]1CN2CCC1CC2)c1ccc(-c2cc3ccccc3s2)o1 [Example 141, N-[(3R)-1-azabicyclo[2.2.2]oct-3-yl]-5-(1-benzothien-2-yl)-furan-2-carboxamide 4-methylbenzenesulfonate] | 6.56 to 6.59
O=C(N[C@H]1CN2CCC1CC2)c1ccc(-c2cc3ccccc3o2)o1 [Example 146, N-[(3R)-1-azabicyclo[2.2.2]oct-3-yl]-5-(1-benzofuran-2-yl)-furan-2-carboxamide 4-methylbenzenesulfonate] | 6.85 to 7.46
Nc1ccccc1-c1ccc(C(=O)N[C@H]2CN3CCC2CC3)o1 [Example 147, 5-(2-Aminophenyl)-N-[(3R)-1-azabicyclo[2.2.2]oct-3-yl]-furan-2-carboxamide bis(4-Methylbenzenesulfonate)] | 8.52 to 8.70
